# Test results published in patent US20120071544A1, “Methods For Identifying Compounds Effective To Increase The Expression Or Activity Of Aspartyl Aminopeptidase In Mammalian Pancreatic Islet Cells, And Methods For Decreasing Angiotensin II Levels In Mammalian Pancreatic Islet Cells” (priority 2010, published 2012).
# Experiments:
# [1] = system: DAP; experiment: DAP protein level in transfected MIN6 cells by Western blot; assay type: cell-based, mouse; details: 48 hours culture, Western blots
# Method: (§1) The DAP gene was either knocked down with DAP RNAi construct or overexpressed by transient transfection of DAP-pCMV in MIN6 cells.
# (§2) The full-length DAP construct or the control vector was transfected into MIN6 cells. After culturing for 48 hours, MIN6 cells and the culture media were harvested for measurement of DAP and Ang II levels. Higher expression level of DAP (2.1-fold±0.6) in DAP-pCMV-transfected MIN6 cells compared to that in the vector-transfected cells was detected by Western blots. Ang II levels in MIN6 cell lysates and the cultured media were measured after the transfection and compared to the control transfected cells. Ang II-specific ELISA kit (Cayman Chemical) was used for the measurements.
# (§3) The cells were transfected with […] of Dnpep siRNA of SEQ ID NO. 13, non-silencing control siRNA, or a full-length of Dnpep cDNA (SEQ ID NO. 12) in pCMV-SPORT6 (Open Biosystems, Huntsville, Ala.) by electroporation (BioRad Laboratories, Berkeley, Calif.). A total of 1×10^5 of the cells was seeded into 6-well culture plates coated with poly-L-lysine and cultured for 24 h. The transfection efficiency was approximately 50 percent according to a co-transfected GFP marker.
# After 48 hours culture, cells and culture media were collected. […]
# [2] = system: DAP mRNA; experiment: DAP mRNA level in transfected MIN6 cells by RT-PCR; assay type: cell-based, mouse; details: 48 hours culture
# Method: It was also investigated whether endogenous DAP levels affect the Ang II levels. Dnpep siRNA and control siRNA were purchased (Qiagen, Germantown, Md.). The target sequences were nucleotides 328-348 (SEQ ID NO. 11:
# […]) of mouse Dnpep cDNA (GenBank NM_001110831; SEQ ID NO. 12). MIN6 cells were maintained in DMEM, supplemented with 10% FCS, 10 mM glucose, 2 mmol/l glutamine, 100 U/ml penicillin, and 0.1 mg/ml streptomycin.
# as §3
# (§4) After 48 hours culture, cells and culture media were collected. Real-time PCR (RT-PCR) was conducted with the primers (Assay ID Details: Mm00497488_m1*) and the 7900HT Fast Real-Time PCR System (Applied Biosystems, Foster City, Calif.). Western blots were performed using the ECL Reagents (GE, Piscataway, N.J.).
# [3] = system: Ang II levels in MIN6 cells; experiment: Ang II levels in MIN6 cell lysates and cultured media by Ang II ELISA; assay type: cell-based, mouse
# Method: as §1, §2, §3, §4
# Ang II levels were measured using the AssayMax Ang II ELISA Kit (Cayman Chemical, Ann Arbor, Mich.). Briefly, standards or samples were incubated in a 96-well plate with biotinylated anti-Ang II antibody for 2 h. After the washings, Streptavidin-Peroxidase Conjugate was added for 30 min. The final reaction was developed with the substrate chromogen and read at 450 nm by an ELISA reader. Ang II levels in the samples were calculated from an Ang II standard curve run with each assay. Values (mean±SEM) are from at least three independent experiments. ANOVA with Tukey's post hoc test was used for statistical analysis.
# [4] = target: Angiotensin II (1-8); experiment: cell-based or functional assay
extracellular Ang II level in DAP RNAi-transfected MIN6 cells against control cells (Ang II ELISA) (percent increase) [4],extracellular Ang II level in DAP-transfected MIN6 cells against control cells (Ang II ELISA) (percent lower) [4],intracellular Ang II level in DAP RNAi-transfected MIN6 cells against control cells (Ang II ELISA) (percent increase) [4],intracellular Ang II level in DAP-transfected MIN6 cells against vector-treated cells (Ang II ELISA) (percent lower) [4],Substance,DAP protein level decrease compared to control cells [1],Endogenous DAP mRNA level knocked down [2],"Intracellular Ang II levels ([3]; MIN6 cell lysates, 48 hours after transfection, mean±SEM)","Intracellular Ang II levels, increase compared to control cells ([3]; MIN6 cell lysates, 48 hours culture)","Extracellular Ang II levels, increase compared to control cells ([3]; MIN6 culture media, 48 hours culture)","Extracellular Ang II levels ([3]; MIN6 cultured media, 48 hours after transfection, mean±SEM)"
,,,,"DAP RNAi: Dnpep siRNA (Qiagen, SEQ ID NO. 13) targeting nucleotides 328-348 of mouse Dnpep cDNA (AATGTGGCCTGGATGGCCTCT; listed as DNA, chemistry not given here; the letters are possibly those of the target site; listed as Mus musculus)",70%,78%,50±6 pg/mg protein,up to 74%,57%,52±5.3 pg/mg protein
57,35,74,28,"aspartyl aminopeptidase (DAP), mouse, gene product of Dnpep (from UniProt Q9Z2W0 1-473) (enzyme)",,,,,,
